Values joined by “and” are separate entries in the source; they are usually repeats but may differ in a detail not shown here. Equal entries are not always repeated.
Assays:
[1] = system: K562 human chronic myeloid leukemia subcutaneous xenograft; test: Antitumor effect in subcutaneous tumor model of K562 human chronic myeloid leukemia; type: in vivo, NOD/SCID mice
Protocol: (§1) K562 cells were inoculated subcutaneously on the right back of NOD/SCID mice to establish human chronic myeloid leukemia subcutaneous xenograft animal model. When the mean tumor volume reached 130 mm^3, the mice used in the experiment were divided into groups and there were 8 mice in each group, then the mice were injected intravenously twice a week. The therapeutic efficiency was evaluated based on the relative tumor proliferation rate (T/C %).
(§2) K562 cell line was cultured in vitro in RPMI-1640 medium supplemented with fetal bovine serum with a volume ratio of 10% and L-glutamine (2 mM) at 37 with the air containing CO2 with a proportion of 5%. The tumor cells were routinely passaged twice a week. The tumor cells in the exponential growth phase were collected and suspended in the mixture formed by PBS and matirgel with an equal volume, and then placed on ice for inoculation of tumor cells.
(§3) 5×10^6 of K562 cells were inoculated subcutaneously on the right back of the mice used in the experiment, the tumor growth was observed regularly, and stochastic grouping of the mice according to tumor size and body weight in mice and pharmacotherapy were carried out when the mean volume of the tumor reached 130 mm^3.
In this study all the operations related to operating, nursing and treatment were undertaken according to the handbook approved by Association for Assessment and Accreditation of Laboratory Animal Care (AAALAC). […] In everyday observation, the influence of tumor growth on animal normal behaviors (such as exercise, eating, drinking, change of weight, eyes, hair) and any other abnormalities were noticed. Death and clinical symptoms of animals in each group were recorded.
Throughout the experiment, the weight and tumor size of mice were measured twice a week. The computational formula of tumor size was as follows: tumor volume (mm^3)=0.5×(long diameter of tumor x short diameter of tumor^2). According to the tumor size in experimental groups and control group, RTV and T/C ratio were calculated. RTV is the relative tumor volume. T/C ratio is the percentage ratio of relative tumor volumes in the treatment group and the control group at a time point after finish of treatment, and reflects the antitumor pharmacodynamic actions of the different treatment groups.

[2] = system: PC-3 human prostate cancer subcutaneous xenograft; test: Pharmacodynamics in subcutaneous tumor model of PC-3 human prostate cancer; type: in vivo, Balb/c nude mice; conditions: PC-3 xenograft; for T/C (%) relative tumor proliferation rate / Relative tumor volume (x ± SE) / Tumor volume (x ± SE) / Effect on tumor growth compared with the solvent control group (in words): 10 mg/kg; for Effect on tumor growth compared with the solvent control group (in words): p values less than 0.01; for Anti-tumor effect compared with dasatinib (in words): same dose 10 mg/kg, 25th day
Protocol: as §1, with “PC-3” for “K562”, “Balb/c nude” for “NOD/SCID”, “prostate cancer” for “chronic myeloid leukemia”, “160” for “130”, “group,” for “group, then”
as §2, with “PC-3” for “K562”, “Ham's F12K” for “RPMI-1640”, “5%, the” for “5%. The”
as §3, with “PC-3” for “K562”, “weas” for “was”, “160” for “130”
In this study all the operations related to operating, nursing and treatment were undertaken according to the handbook approved by Association for Assessment and Accreditation of Laboratory Animal Care (AAALAC). […] In everyday observation, the influence of tumor growth on normal animal behaviors (such as exercise, eating, drinking, change of weight, eyes, hair) and any other abnormalities were noticed. Death and clinical symptoms of animals in each group were recorded.
Throughout the experiment, the weight and tumor size of mice were measured twice a week. The computational formula of tumor size was as follows: tumor volume (mm^3)=0.5×(long diameter of tumor×short diameter of tumor^2). According to the tumor size in experimental groups and control group, RTV and T/C ratio were calculated. RTV is the relative tumor volume. T/C ratio is the percentage ratio of relative tumor volumes in the treatment groups and the control group at a time point after finish of treatment, and reflects the antitumor pharmacodynamic actions of the different treatment groups. When the experiment was finished, the tumors were recorded by photographs in the following two ways: 1. the animals in each group were euthanized by CO2, and the tumor-bearing sides were placed upwards and taken photographs for recording by group; 2. the tumors were removed and weighed first, and T/C values (percentage ratio of tumor weights in treatment groups and the control group) were calculated, and then tumors in each group were placed in order at the same time and taken photographs for recording.

[3] = 5 mg/kg, 14th day after grouping, compared with the solvent control group
[4] = 5 mg/kg, i.v. twice a week, 14th day after grouping
[5] = 5 mg/kg, i.v. twice a week, 21st day after grouping
[6] = 5 mg/kg, i.v. twice a week, 21st day after grouping, 5 mg/kg
[7] = 5 mg/kg, injected intravenously twice a week, 14th day after grouping, 5 mg/kg
[8] = 5 mg/kg, p values less than 0.001
[9] = 22nd day after grouping, compared with the solvent control group
[10] = i.v. twice a week, 22nd day after grouping
[11] = i.v. twice a week, 25th day after grouping
[12] = injected intravenously twice a week, 22nd day after grouping
[13] = 5 mg/kg, 21st day after grouping, compared with the group using dasatinib, 5 mg/kg
[14] = 25th day after grouping, compared with the group using dasatinib
[15] = 5 mg/kg, 21st day after grouping, compared with the group using dasatinib

Molecule | T/C (%) relative tumor proliferation rate [1, 3] [%] | Relative tumor volume (x ± SE) [1, 4] | Relative tumor volume (x ± SE) [1, 5] | Tumor volume (x ± SE) [1, 6] | Tumor volume (x ± SE) [1, 7] | Effect on tumor growth compared with the solvent control group (in words) [1, 8] | T/C (%) relative tumor proliferation rate [2, 9] [%] | Relative tumor volume (x ± SE) [2, 10] | Relative tumor volume (x ± SE) [2, 11] | Tumor volume (x ± SE) [2, 11] | Tumor volume (x ± SE) [2, 12] | Effect on tumor growth compared with the solvent control group (in words) [2] | T/C (%) relative tumor proliferation rate [1, 13] [%] | Anti-tumor effect compared with dasatinib (in words) ([1]; same dose 5 mg/kg, 21st day) | T/C (%) relative tumor proliferation rate [2, 14] [%] | Anti-tumor effect compared with dasatinib (in words) [2] | T/C (%) relative tumor proliferation rate [1, 15] [%]
Cc1nc(Nc2ncc(C(=O)Nc3c(C)cccc3Cl)s2)cc(N2CCN(CCO)CC2)n1 [dasatinib] | 12.4 | 226.9 ± 30.0 | 289.1 ± 46.9 | 391 mm^3 and 391 ± 79 mm^3 | 311 mm^3 and 311 ± 55 mm^3 | statistically significant effect of anti-K562 tumor growth | 73 | 1148.9 ± 112.7 | 1235.3 ± 119.6 | 1868 mm^3 and 1868 ± 76 mm^3 | 1752 mm^3 and 1752 ± 76 mm^3 | statistically significant effect of anti-PC-3 tumor growth |  |  |  |  | 
^20k4arm -PEG-OCH2CH2OCOODS [DSN-3] | 11.8 | 215.4 ± 41.1 | 208 ± 37.6 | 281 mm^3 and 281 ± 56 mm^3 | 295 mm^3 and 295 ± 68 mm^3 | statistically significant effect of anti-K562 tumor growth | 59 | 927.5 ± 96.3 | 864.7 ± 74.5 | 1307 mm^3 and 1307 ± 155 mm^3 | 1452 mm^3 and 1452 ± 139 mm^3 | statistically significant effect of anti-PC-3 tumor growth | 42 | more significant | 70 | more significant | 
^20k4arm -PEG-OCH2CH2ODS [DSN-1] | 14 | 254.6 ± 42.2 | 277.5 ± 32.2 | 375 mm^3 and 375 ± 89 mm^3 | 349 mm^3 and 349 ± 76 mm^3 | statistically significant effect of anti-K562 tumor growth | 67 | 1053.2 ± 107.4 | 975.6 ± 103.5 | 1476 mm^3 and 1476 ± 118 mm^3 | 1649 mm^3 and 1649 ± 142 mm^3 | statistically significant effect of anti-PC-3 tumor growth |  | no statistically significant differences | 79 | more significant | 96
^20k4arm -PEG-OCH2COODS [DSN-2] | 16 | 282.1 ± 46.3 | 350.3 ± 71.9 | 462 mm^3 and 462 ± 114 mm^3 | 372 mm^3 and 372 ± 80 mm^3 | statistically significant effect of anti-K562 tumor growth | 71 | 1116.1 ± 98.2 | 1087.1 ± 88.2 | 1644 mm^3 and 1644 ± 146 mm^3 | 1748 mm^3 and 1748 ± 146 mm^3 | statistically significant effect of anti-PC-3 tumor growth |  | no statistically significant differences | 88 | no statistically significant difference | 121
^20k4arm-PEG-OCH2CH2NHCOODS [DSN-4] | 8.5 | 155.5 ± 28.5 | 161.8 ± 18.9 | 219 mm^3 and 219 ± 45 mm^3 | 210 mm^3 and 210 ± 47 mm^3 | statistically significant effect of anti-K562 tumor growth | 48 | 754.6 ± 84.5 | 778.1 ± 82.4 | 1177 mm^3 and 1177 ± 120 mm^3 | 1182 mm^3 and 1182 ± 68 mm^3 | statistically significant effect of anti-PC-3 tumor growth | 36 | more significant | 63 | more significant | 

Source: US9566344B2, “Dasatinib and nonlinear configuration polyethylene glycol conjugate” (priority 2013, dated 2017)
